The text below walks through data of US8822485B2, “Amino heteroaryl compounds as beta-secretase modulators and methods of use” (Amgen Inc., priority 2010, dated 2014).

In assay [1] the target is BACE1 (Homo sapiens, UniProt P56817). Briefly: In vitro enzymatic BACE FRET assay. The following applies: IC50 range class; 0.2 nM enzyme, 50 nM FRET substrate, pH 4.2. It is filed as biochemical. As to the method:
In Vitro Enzymatic BACE FRET (Fluorescence Resonance Energy Transfer) Assay (Enzyme Assay Data in Table 1)
The assay buffer used in this screen is 0.05 M acetate, pH 4.2, 10% DMSO final, 100 uM genapol (which is a nonionic detergent, below its Critical Micelle Concentration). The Beta Secretase enzyme (0.2 nM) is pre-incubated for one hour with inhibitors, typically in about 1 uL of DMSO according to a serial dilution, are added thereto. The assay is effectively started by the addition of FRET substrate (50 nM) and the combination is incubated for one hour. The FRET assay is terminated with by addition of Tris buffer, which raises the pH to neutrality, and the fluorescence is determined. The FRET substrate is a peptide with commercially available fluorophore and quencher, on opposite sides of the BACE cleavage site. Proteolytic cleavage of the FRET substrate releases quenching of fluorescence (excitation […] and […]).
Of the compounds tested, the in-vitro BACE FRET enzyme data for each of Examples 1-33, where available at the time of filing this application, is provided in Table 1.

The test system of assay [2] is Aβ40 in conditioned medium of cells stably expressing Amyloid Precursor Protein (APP) (HEK cell). Kind of assay: In vitro BACE cell-based assay (HEK cell assay, Aβ40 sandwich ELISA). The following applies: Homo sapiens, HEK293; IC50 range class; inhibition of Aβ40 after 24 h incubation. As to the method: In Vitro BACE Cell-Based Assay:
The cell-based assay measures inhibition or reduction of Aβ40 □ in conditioned medium of test compound treated cells expressing amyloid precursor protein.
Cells stably expressing Amyloid Precursor Protein (APP) were plated at a density of 40K cells/well in 96 well plates (Costar). The cells were cultivated for 24 hours at 37° C. and 5% CO2 in DMEM supplemented with 10% FBS. The test compounds were then added to cells in 10-point dose response concentrations with the starting concentration being either 100 μM or 10 μM. The compounds were diluted from stock solutions in DMSO and the final DMSO concentration of the test compounds on cells was 0.1%. After 24 h of incubation with the test compounds the supernatant conditioned media was collected and the Aβ 40 levels were determined using a sandwich ELISA. The IC50 of the compound was calculated from the percent of control or percent inhibition of Aβ40 as a function of the concentration of the test compound.
The sandwich ELISA to detect Aβ 40 was performed in 96 well microtiter plates, which were pre-treated with goat anti-rabbit IgG (Pierce). The capture and detecting antibody pair that were used to detect Aβ 40 from cell supernatants were affinity purified pAb40 (Biosource) and biotinylated 6E10 (Signet Labs Inc.), respectively. The optimal concentration for the pAb40 antibody was 3 μg/ml in Superblock/TBS (Pierce) that was supplemented with 0.05% Tween 20 (Sigma). Optimal concentration for the detection antibody 6E10-biotinylated was 0.5 μg/ml in Superblock/TBS (Pierce) that had been supplemented with 2% normal goat serum and 2% normal mouse serum.
Cellular supernatants were incubated with the capture antibody for 3 h at 4° C., followed by 3 wash steps in TBS-tween (0.05%). The detecting antibody incubation was for 2 h at 4° C., again followed by the wash steps as described previously. The final readout of the ELISA is Time-Resolved Fluorescence (counts per minute) using Delfia reagents Streptavidin-Europium and Enhancement solutions (Perkin Elmer) and the Victor 2 multilabel counter (Perkin Elmer).
Of the compounds tested, the cell based assay data for each of Examples 1-33, where available at the time of filing this application, is provided in Table 1.
(In general: In an ELISA, binding on a coated surface is turned into a signal by an enzyme label.)

Sequence of BACE1 (P56817 46-501, species assumed): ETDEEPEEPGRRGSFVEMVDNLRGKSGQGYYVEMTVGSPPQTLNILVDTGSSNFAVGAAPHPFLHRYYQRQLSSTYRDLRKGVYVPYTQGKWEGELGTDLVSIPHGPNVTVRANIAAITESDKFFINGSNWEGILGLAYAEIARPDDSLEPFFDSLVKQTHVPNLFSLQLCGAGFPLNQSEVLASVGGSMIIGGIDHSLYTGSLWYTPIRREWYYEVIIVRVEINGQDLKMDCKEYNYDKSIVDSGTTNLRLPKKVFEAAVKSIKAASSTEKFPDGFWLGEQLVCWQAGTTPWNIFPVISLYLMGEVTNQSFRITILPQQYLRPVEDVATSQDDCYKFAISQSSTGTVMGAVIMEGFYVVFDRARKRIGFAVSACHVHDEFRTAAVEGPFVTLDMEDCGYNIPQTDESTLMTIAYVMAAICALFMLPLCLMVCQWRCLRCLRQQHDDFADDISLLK

For orientation: IC50 means the concentration that inhibits the measured activity by half. For the molecule `Cc1cccc(C(=O)N2CCCC2C)c1-c1ccc2nc(N)c(CCc3cncnc3)cc2c1` (racemic) [Example 32, (±)-(2-(2-amino-3-(2-(pyrimidin-5-yl)ethyl)quinolin-6-yl)-3-methylphenyl)(2-methylpyrrolidin-1-yl)methanone], the IC50 in assay [1] was less than 0.1 µM; in assay [2], less than 0.5 µM.

Consider `Cc1ccccc1-c1ccc2nc(N)c(C3OCCCC3c3cc(CC(C)(C)C)ncn3)cc2c1` (single isomer, unassigned) [Example 7], for which the results for the IC50 in assay [1] and in assay [2] were less than 0.1 µM and 1 to 5 µM, respectively.

Consider `Cc1ccccc1-c1ccc2nc(N)c(C3CCCC3c3cc(C4CCCC4)ncn3)cc2c1` (stereo not shown) [Example 1, 3-(2-(6-cyclopentylpyrimidin-4-yl)cyclopentyl)-6-o-tolylquinolin-2-amine], for which the IC50 is less than 0.1 µM in assay [1] and more than 5 µM in assay [2].

For `Cc1ccccc1-c1ccc2nc(N)c(C=Cc3cncc(C4=CCCCC4)c3)cc2c1` [Example 2, 3-(2-(5-cyclohexenylpyridin-3-yl)vinyl)-6-o-tolylquinolin-2-amine], the IC50 is 0.1 to 1 µM in assay [1] and more than 5 µM in assay [2].

As for `Cc1ccccc1-c1ccc2nc(N)c(CCc3cncc(C4CCCCC4)c3)cc2c1` [Example 3, 3-(2-(5-cyclohexylpyridin-3-yl)ethyl)-6-o-tolylquinolin-2-amine], the half-inhibitory concentration (IC50) in assay [1] was less than 0.1 µM; in assay [2], more than 5 µM.

Turning to `CCc1cncc(CCc2cc3cc(-c4ccccc4C)ccc3nc2N)c1` [Example 5, 3-(2-(5-ethylpyridin-3-yl)ethyl)-6-o-tolylquinolin-2-amine], the half-inhibitory concentration (IC50) in assay [1] and in assay [2] was 1 to 5 µM in each case.

In the case of `Cc1cccnc1-c1ccc2nc(N)c(CCc3cc(CC(C)(C)C)ncn3)cc2c1` [Example 6, 6-(3-methylpyridin-2-yl)-3-(2-(6-neopentylpyrimidin-4-yl)ethyl)quinolin-2-amine], the IC50 in assay [1] fell in the range of 0.1 to 1 µM; in assay [2], 1 to 5 µM.

With `Cc1ccccc1-c1ccc2nc(N)c(CCc3cc(C(C)(C)C)ncn3)cc2c1` [Example 8, 3-(2-(6-tert-butylpyrimidin-4-yl)ethyl)-6-o-tolylquinolin-2-amine], the IC50 in assay [1] is less than 0.1 µM; in assay [2], 1 to 5 µM.

For `Cc1ccccc1-c1ccc2nc(N)c(CC(C)c3cc(CC(C)(C)C)ncn3)cc2c1` (stereo not shown) [Example 9, 3-(2-(6-neopentylpyrimidin-4-yl)propyl)-6-o-tolylquinolin-2-amine], the IC50 was less than 0.1 µM in assay [1] and 0.5 to 1 µM in assay [2].

Turning to `CCc1cc(C(C)Cc2cc3cc(-c4ccccc4C)ccc3nc2N)ncn1` (stereo not shown) [Example 10, 3-(2-(6-ethylpyrimidin-4-yl)propyl)-6-o-tolylquinolin-2-amine], the IC50 in assay [1] was 0.1 to 1 µM; in assay [2], 1 to 5 µM.

Turning to `Cc1ccccc1-c1ccc2nc(N)c(COc3cc(C(F)(F)F)ncn3)cc2c1` [Example 11, 6-o-tolyl-3-((6-(trifluoromethyl)pyrimidin-4-yloxy)methyl)quinolin-2-amine], the results for the IC50 in assay [1] and in assay [2] were 0.1 to 1 µM and more than 5 µM, respectively.

With `Cc1ccccc1-c1ccc2nc(N)c(CC(C)c3cc(C4CCCC4)ncn3)cc2c1` (stereo not shown) [Example 13, 3-(2-(6-cyclopentylpyrimidin-4-yl)propyl)-6-o-tolylquinolin-2-amine], the IC50 in assay [1] was less than 0.1 µM; in assay [2] it was 1 to 5 µM.

Take `CCc1cc(OCc2cc3cc(-c4ccccc4C)ccc3nc2N)ncn1` [Example 14, 6-o-tolyl-3-((6-ethylpyrimidin-4-yloxy)methyl)quinolin-2-amine]: the IC50 in assay [1] and in assay [2] was more than 5 µM throughout.

As to `Cc1cccnc1-c1ccc2nc(N)c(CC(C)c3cc(CC(C)(C)C)ncn3)cc2c1` (stereo not shown) [Example 15, 6-(3-methylpyridin-2-yl)-3-(2-(6-neopentylpyrimidin-4-yl)propyl)quinolin-2-amine], the concentration for half-maximal inhibition (IC50) lay within 0.1 to 1 µM in assay [1] and 0.5 to 1 µM in assay [2].

For the molecule `Cc1cccnc1-c1ccc2nc(N)c(CCc3cc(C(C)(C)C)ncn3)cc2c1` [Example 16, 3-(2-(6-tert-butylpyrimidin-4-yl)ethyl)-6-(3-methylpyridin-2-yl)quinolin-2-amine], the half-inhibitory concentration (IC50) in assay [1] was 0.1 to 1 µM; in assay [2] it was 1 to 5 µM.

Turning to `Cc1ccccc1-c1ccc2nc(N)c(CCc3cc4ccccc4[nH]3)cc2c1` [Example 17, 3-(2-(1H-indol-2-yl)ethyl)-6-o-tolylquinolin-2-amine], the half-maximal inhibitory concentration (IC50) in assay [1] fell in the range of 1 to 5 µM; in assay [2] it was 0.5 to 1 µM.

For `Cc1ccccc1-c1ccc2nc(N)c(CCc3cncc(CC(C)C)c3)cc2c1` [Example 18, 3-(2-(5-isobutylpyridin-3-yl)ethyl)-6-o-tolylquinolin-2-amine], the values for the IC50 in assay [1] and in assay [2] were 0.1 to 1 µM and 1 to 5 µM, respectively.

Turning to `Cc1ccccc1-c1ccc2nc(N)c(CCc3cnn(Cc4ccccc4)c3)cc2c1` [Example 19, 3-(2-(1-benzyl-1H-pyrazol-4-yl)ethyl)-6-o-tolylquinolin-2-amine], the values for the half-maximal inhibitory concentration (IC50) in assay [1] and in assay [2] were 0.1 to 1 µM and 1 to 5 µM, respectively.

As to `Cc1cccnc1-c1ccc2nc(N)c(CCc3cc(C4CCOCC4)ncn3)cc2c1` [Example 20, 6-(3-methylpyridin-2-yl)-3-(2-(6-(tetrahydro-2H-pyran-4-yl)pyrimidin-4-yl)ethyl)quinolin-2-amine], the results for the IC50 in assay [1] and in assay [2] were 0.1 to 1 µM and 1 to 5 µM, respectively.

For the molecule `Cc1ccccc1-c1ccc2nc(N)c(CCc3cncc(CC(C)(C)C)c3)cc2c1` [Example 21, 3-(2-(5-neopentylpyridin-3-yl)ethyl)-6-o-tolylquinolin-2-amine], the results for the IC50 in assay [1] and in assay [2] were 0.1 to 1 µM and more than 5 µM, respectively.

As for `Cc1ccccc1-c1ccc2nc(N)c(CCc3cncc(CCC(C)(C)C)c3)cc2c1` [Example 22, 3-(2-(5-(3,3-dimethylbutyl)pyridin-3-yl)ethyl)-6-o-tolylquinolin-2-amine], the IC50 is 0.1 to 1 µM in assay [1] and more than 5 µM in assay [2].

`Cc1ccccc1-c1ccc2nc(N)c(CCc3cccc(C(F)(F)F)c3)cc2c1` [Example 23, 6-o-tolyl-3-(3-(trifluoromethyl)phenethyl)quinolin-2-amine]: the IC50 is 1 to 5 µM in assay [1] and more than 5 µM in assay [2].

On to `Cc1ccccc1-c1ccc2nc(N)c(C=Cc3cnn(C4CCCCC4)c3)cc2c1` [Example 24, 3-(2-(1-cyclohexyl-1H-pyrazol-4-yl)vinyl)-6-o-tolylquinolin-2-amine], for which the IC50 in assay [1] is 1 to 5 µM; in assay [2], more than 5 µM.

For `Cc1ccccc1-c1ccc2nc(N)c(CCc3cnn(C4CCCCC4)c3)cc2c1` [Example 25, 3-(2-(1-cyclohexyl-1H-pyrazol-4-yl)ethyl)-6-o-tolylquinolin-2-amine], the figures for the IC50 in assay [1] and in assay [2] were less than 0.1 µM and 1 to 5 µM, respectively.

Take `Cc1ccccc1-c1ccc2nc(N)c(CC(C)c3cncc(C4CCCCO4)c3)cc2c1` (stereo not shown) [Example 26, 3-(2-(5-(tetrahydro-2H-pyran-2-yl)pyridin-3-yl)propyl)-6-o-tolylquinolin-2-amine]: the IC50 was in the range of 0.1 to 1 µM in assay [1] and 1 to 5 µM in assay [2].

Turning to `Cc1ccccc1-c1ccc2nc(N)c(CC(C)c3cncc(C4CCCCC4)c3)cc2c1` (stereo not shown) [Example 27, 3-(2-(5-cyclohexylpyridin-3-yl)propyl)-6-o-tolylquinolin-2-amine], the IC50 in assay [1] is less than 0.1 µM; in assay [2] it was more than 5 µM.

As to `Cc1ccccc1-c1ccc2nc(N)c(CCc3cnco3)cc2c1` [Example 28, 3-(2-(oxazol-5-yl)ethyl)-6-o-tolylquinolin-2-amine], the IC50 in assay [1] is 1 to 5 µM; in assay [2], more than 5 µM.

`Cc1ccccc1-c1ccc2nc(N)c(CCc3ccccn3)cc2c1` [Example 29, 3-(2-(pyridin-2-yl)ethyl)-6-o-tolylquinolin-2-amine]: the IC50 in assay [1] was 1 to 5 µM; in assay [2] it was more than 5 µM.

In the case of `Cc1ccccc1-c1ccc2nc(N)c(CC(C)c3cncc(C4CCCC4)c3)cc2c1` (stereo not shown) [Example 30, 3-(2-(5-cyclopentylpyridin-3-yl)propyl)-6-o-tolylquinolin-2-amine], the half-inhibitory concentration (IC50) is less than 0.1 µM in assay [1] and 1 to 5 µM in assay [2].
